Experiments:
[1] = system: transformed PSC (human pancreatic stellate cells); assay: PSC proliferation, AlamarBlue Cell Viability Assay; type: cell-based; conditions: for inhibition at 5 µM / inhibition at 10 µM / inhibition at 20 µM: Homo sapiens, mean of at least three independent experiments, NE = No effect, read-out: Inhibitory Effect (%) on PSC proliferation; for IC50: human PSC, 24 h, mean±SEM of at least three experiments, read-out: IC50, inhibition of PSC proliferation; for IC50 / Antiproliferative effect on PSC, result in words: AlamarBlue; for Antiproliferative effect on PSC, result in words: transformed PSC
Procedure: The calculated lipophilicity (cLogP) and topological polar surface area (tPSA) values of synthesized analogues are listed in Table 1. […] AlamarBlue is a non-toxic reagent that is converted to a highly fluorescent end product by viable cells.
Under an IRB-approved tissue protocol, discarded human resected pancreatic tissue (500 mm^3) was attained fresh from the operating room at the University of Texas Medical Branch. The tissue was minced and plated on a collagen-coated flask (15 μg/mL, Invitrogen) with DMEM (VWR; Radnor, Pa.) supplemented with penicillin 200 U/mL, streptomycin 200 μg/mL, amphotericin B 0.25 μg/mL and gentimicin 50 μg/mL (Invitrogen, Carlsbad Calif.), 10% fetal bovine serum (Lonza, Walkersville, Md.), 1% insulin-transferrin, selenium-ethanolamine (Gibco, Grand Island, N.Y.), and 1% non-essential amino acids (Sigma-Aldrich, St. Louis, Mo.). The human PSC were isolated by the outgrowth method.^41-43 The purity of PSC culture was confirmed by immunohistochemical staining for vimentin, α-smooth muscle actin, glial fibrillar acidic protein, or Oil red O staining. Primary PSC were transformed and immortalized for use in experiments using lentiviral vectors containing SV40 Large T antigen and human telomerase (plasmid #12245 and 12246; Addgene, Cambridge, Mass.). Cultures were maintained in DMEM with 10% FBS, at 37° C. in a humidified 95% O2/5% CO2 atmosphere.
Cell proliferation assay. Transformed PSC (3×10^3) were plated in 96-well plates, in sextuplicate. […] AlamarBlue reagent (10% sample volume, DAL1025) was added to each well per Invitrogen's protocol. Fluorescence was recorded using excitation/emission wavelengths of 544/590 nm and the SpectraMax M2 Microplate Reader (Molecular Devices, Sunnyvale Calif.).
Statistical analysis. Dose-response curves were generated by plotting fluorescence or absorbance versus log (compound concentration). A best-fit curve was created using nonlinear regression, and the IC50 or EC50 determined from the graph (GraphPad Prism 5; GraphPad Software Inc., La Jolla, Calif.). To analyze continuos variables, unpaired student t-tests and one-way ANOVA with Tukey-Kramer multiple comparisons post-test (GraphPad Prism 5). Significance was set at p<0.05.

[2] = system: transformed PSC (human pancreatic stellate cells); assay: PSC apoptosis, Cell Death Detection ELISA PLUS assay; type: cell-based; conditions: 14 h; for EC50: mean±SEM of at least three experiments
Procedure: These two representative analogues were also investigated to determine whether the growth inhibition induced by compounds 23 and 24 in PSC was attributed to apoptosis. Apoptosis was determined using the Cell Death Detection ELISA^PLUS assay. This sandwich-enzyme-immunoassay involved antibodies binding to cytoplasmic nucleosomes, which were specific to the process of apoptosis rather than necrosis. […] Next, the dose-response curve was generated (FIG. 3B). The EC50 represented the concentration at which the compound yielded half of the maximal amount of cell death. […] The capacity of the compounds to induce cell death in activated PSC would most likely translate into reduced fibrosis in CP. […] Under an IRB-approved tissue protocol, discarded human resected pancreatic tissue (500 mm^3) was attained fresh from the operating room at the University of Texas Medical Branch. The tissue was minced and plated on a collagen-coated flask (15 μg/mL, Invitrogen) with DMEM (VWR; Radnor, Pa.) supplemented with penicillin 200 U/mL, streptomycin 200 μg/mL, amphotericin B 0.25 μg/mL and gentimicin 50 μg/mL (Invitrogen, Carlsbad Calif.), 10% fetal bovine serum (Lonza, Walkersville, Md.), 1% insulin-transferrin, selenium-ethanolamine (Gibco, Grand Island, N.Y.), and 1% non-essential amino acids (Sigma-Aldrich, St. Louis, Mo.). The human PSC were isolated by the outgrowth method.^41-43 The purity of PSC culture was confirmed by immunohistochemical staining for vimentin, α-smooth muscle actin, glial fibrillar acidic protein, or Oil red O staining. Primary PSC were transformed and immortalized for use in experiments using lentiviral vectors containing SV40 Large T antigen and human telomerase (plasmid #12245 and 12246; Addgene, Cambridge, Mass.). Cultures were maintained in DMEM with 10% FBS, at 37° C. in a humidified […] atmosphere. Cell death assay. Transformed PSC (8×10^3) were plated in 96-well plates in triplicate. […] The Cell Death Detection ELISA^PLUS assay (Roche Applied Science, Indianapolis, Ind.) was used and protocol followed (Version 11.0). Absorbance was measured at 405 nm, using the EL×800 Automated Microplate Reader (Bio-TEK Instruments, Inc., Winooski, Vt.). Statistical analysis. Dose-response curves were generated by plotting fluorescence or absorbance versus log (compound concentration). A best-fit curve was created using nonlinear regression, and the IC50 or EC50 determined from the graph (GraphPad Prism 5; GraphPad Software Inc., La Jolla, Calif.). To analyze continuos variables, unpaired student t-tests and one-way ANOVA with Tukey-Kramer multiple comparisons post-test (GraphPad Prism 5). Significance was set at p<0.05.

| SMILES | inhibition at 5 µM [1] [%] | inhibition at 10 µM [1] [%] | inhibition at 20 µM [1] [%] | IC50 [1] [µM] | Antiproliferative effect on PSC, result in words [1] | Concentrations inducing stellate cell toxicity [2] | EC50 [2] [µM] |
| --- | --- | --- | --- | --- | --- | --- | --- |
| COc1cc(OC)c2c(=O)cc(-c3ccc(OCC(O)CN4CCCCC4)cc3)oc2c1 (stereo not drawn) [Compound 24, 2-(4-(2-Hydroxy-3-piperidin-1-yl-propoxy)phenyl)-5,7-dimethoxy-chromen-4-one] | 34 | 65 | 95 | 8 ± 1.8 | potent antiproliferative effects | greater than 25 μM | 35.2 ± 5.5 |
| COc1cc(OC)c2c(=O)cc(-c3ccc(OCC4CO4)cc3)oc2c1 (stereo not drawn) [Compound 23, 5,7-Dimethoxy-2-(4-oxiranylmethoxyphenyl)-chromen-4-one] | 69 | 89 | 93 | 2.5 ± 0.6 | highly potent inhibitor suppressing PSC proliferation | – | 9.6 ± 1.8 |
| O=c1cc(-c2ccc(O)cc2)oc2cc(O)cc(O)c12 [Apigenin, 4′,5,7-trihydroxyflavone, reference compound] | 11 | 34 | 64 | 18.6 ± 1.6 | – | – | 24.5 ± 2.5 |
